Results reported in patent EP2758383B1, “AROMATIC AMIDOTHIAZOLES, COSMETIC AND DERMATOLOGICAL PREPARATIONS CONTAINING THEM, AND THEIR USE FOR THE TREATMENT AND PROPHYLAXIS OF UNWANTED PIGMENTATION OF THE SKIN” (priority 2011, dated 2013).

What follows are compounds tested against T1, humane Tyrosinase (Homo sapiens, UniProt P14679) (assay: Enzyme test: conversion of L-DOPA to L-dopaquinone by human tyrosinase, MBTH detection, absorption at 490 nm). Conditions: Konzentration 10 µg/mL; substrate L-DOPA; read-out: Inhibition (% der Kontrolle).
T1 sequence (P14679 19-529): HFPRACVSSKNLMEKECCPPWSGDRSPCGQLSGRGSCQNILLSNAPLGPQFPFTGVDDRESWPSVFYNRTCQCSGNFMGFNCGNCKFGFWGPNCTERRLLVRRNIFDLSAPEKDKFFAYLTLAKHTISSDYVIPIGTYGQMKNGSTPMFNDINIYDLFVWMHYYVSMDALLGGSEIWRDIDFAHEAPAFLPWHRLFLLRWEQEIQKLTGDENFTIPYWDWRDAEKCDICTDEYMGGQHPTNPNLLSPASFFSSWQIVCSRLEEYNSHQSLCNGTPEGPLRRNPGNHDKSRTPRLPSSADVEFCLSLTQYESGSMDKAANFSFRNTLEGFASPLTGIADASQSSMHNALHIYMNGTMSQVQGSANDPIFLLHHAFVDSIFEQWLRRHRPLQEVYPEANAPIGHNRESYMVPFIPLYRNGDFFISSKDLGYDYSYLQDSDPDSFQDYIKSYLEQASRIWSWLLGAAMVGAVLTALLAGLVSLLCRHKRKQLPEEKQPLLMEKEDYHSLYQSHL
Assay type: biochemical
Excerpt: Die Wirksamkeit der Thiazole wurde mit einem Enzymtest belegt, in der Umsatz von L-DOPA zu L-Dopachinon durch eine humane Tyrosinase gemessen wurde.

Row | SMILES | inhibition at 10 µg/mL
1 | CC(C)(C)c1ccc(C(=O)Nc2nc(-c3ccc(O)cc3O)cs2)cc1 [4-(tert-butyl)-N-(4-(2,4-dihydroxyphenyl)thiazol-2-yl)benzamid] | 27%
2 | CC(=O)c1ccc(C(=O)Nc2nc(-c3ccc(O)cc3O)cs2)cc1 [4-acetyl-N-(4-(2,4-dihydroxyphenyl)thiazol-2-yl)benzamid] | 92%
3 | N#Cc1ccc(C(=O)Nc2nc(-c3ccc(O)cc3O)cs2)cc1 [4-cyano-N-(4-(2,4-dihydroxyphenyl)thiazol-2-yl)benzamid] | 96%
4 | O=C(Nc1nc(-c2ccc(O)cc2O)cs1)c1ccc(CO)cc1 [N-(4-(2,4-dihydroxyphenyl)thiazol-2-yl)-4-(hydroxymethyl)benzamid] | 99%
5 | O=C(Nc1nc(-c2ccc(O)cc2O)cs1)c1ccc(CO)nc1 [N-(4-(2,4-dihydroxyphenyl)thiazol-2-yl)-6-(hydroxymethyl)nicotinamid] | 98%

Now from value to compound:

Row | inhibition at 10 µg/mL | SMILES
6 | 98% | O=C(Nc1nc(-c2ccc(O)cc2O)cs1)c1ccccc1 [N-(4-(2,4-dihydroxyphenyl)thiazol-2-yl)benzamid]
7 | 92% | O=C(Nc1nc(-c2ccc(O)cc2O)cs1)c1ccc2c(c1)OCO2 [N-(4-(2,4-dihydroxyphenyl)thiazol-2-yl)benzo[d][1,3]dioxole-5-carboxamide]
8 | 82% | O=C(Nc1nc(-c2ccc(O)cc2O)cs1)c1ccccn1 [N-(4-(2,4-dihydroxyphenyl)thiazol-2-yl)picolinamid]
9 | 16% | c1ccc(Nc2nc(-c3ccncc3)cs2)nc1 [N-(pyridin-2-yl)-4-(pyridin-4-yl)thiazol-2-amin, reference compound]
10 | 13% | C=CCN(C1=NC(C)(C)C(=C)S1)c1ccc(C)cc1C [N-allyl-N-(2,4-dimethylphenyl)-4,4-dimethyl-5-methylene-4,5-dihydrothiazol-2-amin, reference compound]
11 | 13% | CN(c1ccccc1)c1nc(-c2ccncc2)cs1 [N-methyl-N-phenyl-4-(pyridin-4-yl)thiazol-2-amin, reference compound]

Same assay, conditions: read-out: Inhibition (% der Kontrolle)

Row | SMILES | inhibition at 10 µg/mL
12 | CC(C)(O)c1ccc(C(=O)Nc2nc(-c3ccc(O)cc3O)cs2)cc1 [N-(4-(2,4-dihydroxyphenyl)thiazol-2-yl)-4-(2-hydroxypropan-2-yl)benzamid] | 96%
